The MTD is the largest dose that counted as tolerated.

The values below come from patent publication US8044048B2, “Derivatives of sulindac, use thereof and preparation thereof” (Southern Research Institute, priority 2006, dated 2011).

Where two headings read alike, the source gives them in different places.

The test system of data set [1] is human HT29 colon tumor cell line. Nature of the data set: Growth inhibitory activity / in vitro cytotoxicity against human HT29 colon tumor cells. The text has this: These toxicities include gastrointestinal, renal and hematological disturbances which results from COX-1 inhibition as well as cardiovascular toxicity which likely results from COX-2 inhibition.
In another data set the test system is tumor cells. As to the kind of experiment: Cytostatic and cytotoxic activity. The class given is cell-based. To be noted: FIGS. 3A and 3B, compared with sulindac sulfide. An excerpt: Cytotoxic activity is defined as the ability the treatment to reduce cell number below the number when treatment was initiated and is an indicator of chemotherapeutic efficacy. Cytostasis is defined as the ability of the treatment to reduce cell number relative to untreated cells and is an indicator of chemopreventive efficacy.

The next data set deals with COX-1 (Homo sapiens, UniProt P23219). As to the kind of experiment: COX-1 inhibitory activity. It is filed as biochemical.
Chain of COX-1 (P23219 24-599): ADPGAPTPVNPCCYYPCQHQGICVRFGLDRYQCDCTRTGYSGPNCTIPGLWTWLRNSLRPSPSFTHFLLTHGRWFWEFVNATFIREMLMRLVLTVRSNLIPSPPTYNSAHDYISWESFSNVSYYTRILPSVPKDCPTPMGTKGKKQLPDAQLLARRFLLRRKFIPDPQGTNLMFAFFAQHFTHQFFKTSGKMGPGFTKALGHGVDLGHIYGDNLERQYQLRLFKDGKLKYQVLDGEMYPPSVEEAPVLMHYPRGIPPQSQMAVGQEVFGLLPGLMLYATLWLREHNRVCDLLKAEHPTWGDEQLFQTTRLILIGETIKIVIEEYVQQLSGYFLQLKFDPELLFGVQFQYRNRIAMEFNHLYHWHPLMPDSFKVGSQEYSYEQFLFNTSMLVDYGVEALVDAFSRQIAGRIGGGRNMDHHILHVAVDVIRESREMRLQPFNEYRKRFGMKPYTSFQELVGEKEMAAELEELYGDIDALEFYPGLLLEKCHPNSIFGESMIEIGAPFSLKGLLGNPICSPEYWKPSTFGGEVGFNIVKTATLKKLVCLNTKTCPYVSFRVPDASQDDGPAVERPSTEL
The target in a further data set is T1, COX-2 (Homo sapiens, UniProt P35354).
T1 sequence (P35354 18-604): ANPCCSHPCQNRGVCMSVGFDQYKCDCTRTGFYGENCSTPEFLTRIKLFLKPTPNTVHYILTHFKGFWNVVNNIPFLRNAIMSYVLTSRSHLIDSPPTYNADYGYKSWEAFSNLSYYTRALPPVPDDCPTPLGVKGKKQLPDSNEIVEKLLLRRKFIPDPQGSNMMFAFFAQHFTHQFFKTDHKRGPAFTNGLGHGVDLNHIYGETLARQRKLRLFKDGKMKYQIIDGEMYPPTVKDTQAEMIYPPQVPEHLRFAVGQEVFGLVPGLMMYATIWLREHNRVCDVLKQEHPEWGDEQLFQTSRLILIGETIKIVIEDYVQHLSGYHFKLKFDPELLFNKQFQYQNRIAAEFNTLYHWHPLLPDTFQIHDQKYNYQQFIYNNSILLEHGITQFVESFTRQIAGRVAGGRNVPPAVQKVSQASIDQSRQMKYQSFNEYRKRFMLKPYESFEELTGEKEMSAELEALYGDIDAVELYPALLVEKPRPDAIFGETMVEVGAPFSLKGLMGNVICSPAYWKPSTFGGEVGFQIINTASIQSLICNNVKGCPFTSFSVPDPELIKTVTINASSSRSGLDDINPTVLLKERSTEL
As to the kind of experiment: COX-2 inhibitory activity. The class given is biochemical.

The nature of data set [2]: Oral bioavailability, plasma levels after oral administration. The class given is in vivo.
The nature of data set [3]: Toxicity in mice, maximum tolerated dose. It is filed as in vivo. The procedure: FIGS. 5A and 5B show the reduced toxicity of SRI 21009 in mice relative to sulindac. Following a once a day dosing schedule, the maximum tolerated dose of sulindac is estimated to be 50 mg/kg in comparison to 300 mg/kg for SRI 21009.
Data set [4] relates to human colon HT29 colon tumor cells. As to the kind of experiment: Antitumor activity in athymic nude mice implanted with HT29 tumor cells. It is filed as in vivo. The conditions noted are these: 300 mg/kg, once a day dosing schedule, HT29 xenograft.
Data set [5] deals with panel of histologically diverse tumor cell types. As to the kind of experiment: Growth inhibitory activity against a panel of tumor cell types. It is filed as cell-based. To be noted: FIG. 2.
[6] abbreviates: Homo sapiens, HT-29, read-out: IC50 value, growth inhibitory activity.
Where [7] appears, read: Homo sapiens, HT-29, read-out: cytotoxity IC50 values (50% inhibitory concentration).
Where [8] appears, read: read-out: IC50 value, growth inhibitory activity, human HT29 colon tumor cell line, Table B upper part.
Setting [9] is: read-out: IC50, growth inhibitory activity, human HT29 colon tumor cell line, Table B lower part.

In the case of `CC1=C(CC(=O)NCCN(C)C)c2cc(F)ccc2C1=Cc1ccc([S+](C)[O-])cc1` (centres unmarked) [SRI 21004, N-[2-(Dimethylamino)ethyl]-5-fluoro-2-methyl-1-[[4-(methylsulfinyl)phenyl]methylene]-1H-indene-3-acetamide], the IC50 came to 25.1 µM in data set [1] (setting [6]) and 29.2 µM in data set [1] (setting [7]). Further, in the data set with tumor cells, the “cytotoxic activity (reduce cell number below the number when treatment was initiated)” value is “greater potential for chemotherapeutic efficacy compared with sulindac sulfide”.
On to `CC1=C(CC(=O)NCC2CCCN2C)c2cc(F)ccc2C1=Cc1ccc([S+](C)[O-])cc1` (centres unmarked) [SRI 21008, 5-Fluoro-2-methyl-N-[(1-methyl-2-pyrrolidinyl)methyl]-1-[[4-(methylsulfinyl)phenyl]methylene]-1H-indene-3-acetamide], for which the IC50 in data set [1] (setting [6]) was 18.7 µM.
Turning to `CSc1ccc(/C=C2/C(C)=C(CC(=O)NCCN(C)C)c3cc(F)ccc32)cc1` [SRI 21009, N-[2-(Dimethylamino)ethyl]-5-fluoro-2-methyl-1-[[4-(methylsulfide)phenyl]methylene]-1H-indene-3-acetamide], the IC50 in data set [1] (setting [6]) worked out at 1.47 µM; in data set [1] (setting [7]), 1.47 µM; on COX-1, 1.48 mM; against COX-2 it was 164 µM. Besides, in data set [2] (following SRI 21009 administration), the “sulindac sulfoxide, sulfone, or sulfide detected in the plasma” value was “Negligible amounts”. In addition, the achievable plasma levels result in data set [2] (oral administration, single dose of 200 mg/kg) is on record as “exceeded the IC50 value for in vitro growth inhibition”. In data set [3] (mouse, in vivo), this compound showed an MTD of about 300 mg/kg. Moreover, in data set [4], the antitumor activity entry is recorded as “as effective as sulindac at 50 mg/kg”. Also, in data set [5], the “growth inhibitory activity across tumor cell types” value is recorded as “enhanced sensitivity of tumor cells derived from colorectal tumors compared with other tumor types”.
Take `CC1=C(CC(=O)NCCN2CCNCC2)c2cc(F)ccc2C1=Cc1ccc([S+](C)[O-])cc1` (centres unmarked) [SRI 21113, 5-Fluoro-2-methyl-1-[[4-(methylsulfinyl)phenyl]methylene]-N-[2-(1-piperazinyl)ethyl]-1H-indene-3-acetamide]: the IC50 in data set [1] (setting [6]) worked out at 76.9 µM.
`CC1=C(CC(=O)NCCN2CCCCC2)c2cc(F)ccc2C1=Cc1ccc([S+](C)[O-])cc1` (centres unmarked) [SRI 21114, 5-Fluoro-2-methyl-1-[[4-(methylsulfinyl)phenyl]methylene]-N-[2-(1-piperidinyl)ethyl]-1H-indene-3-acetamide]: the IC50 in data set [1] (setting [6]) was found to be 19.7 µM.
Regarding `CC1=C(CC(=O)NCCc2cccnc2)c2cc(F)ccc2C1=Cc1ccc([S+](C)[O-])cc1` (centres unmarked) [SRI 21162, 5-Fluoro-2-methyl-1-[[4-(methylsulfinyl)phenyl]methylene]-N-[2-(3-pyridinyl)ethyl]-1H-indene-3-acetamide], in data set [1] (setting [6]), the IC50 amounted to 99.8 µM.
In the case of `CC1=C(CC(=O)NCCN2CCCC2)c2cc(F)ccc2C1=Cc1ccc([S+](C)[O-])cc1` (centres unmarked) [SRI 21169, 5-Fluoro-2-methyl-1-[[4-(methylsulfinyl)phenyl]methylene]-N-[2-(1-pyrrolidinyl)ethyl]-1H-indene-3-acetamide], the IC50 in data set [1] (setting [6]) came out at 17.2 µM.
On the same count and under the same terms, then `CC1=C(CC(=O)NCCN2CCOCC2)c2cc(F)ccc2C1=Cc1ccc([S+](C)[O-])cc1` (centres unmarked) [SRI 21178, 5-Fluoro-2-methyl-1-[[4-(methylsulfinyl)phenyl]methylene]-N-[2-(4-morpholinyl)ethyl]-1H-indene-3-acetamide], with 114 µM; and `CC1=C(CC(=O)NCCN)c2cc(F)ccc2C1=Cc1ccc([S+](C)[O-])cc1` (centres unmarked) [SRI 21185, N-(2-Aminoethyl)-5-fluoro-2-methyl-1-[[4-(methylsulfinyl)phenyl]methylene]-1H-indene-3-acetamide], with 85.2 µM.
`CC1=C(CC(=O)NCCc2c[nH]cn2)c2cc(F)ccc2C1=Cc1ccc([S+](C)[O-])cc1` (centres unmarked) [SRI 21229]: the IC50 in data set [1] (setting [8]) is 32.6 µM.
Regarding `CC1=C(CC(=O)NCc2ccc(N(C)C)cc2)c2cc(F)ccc2C1=Cc1ccc([S+](C)[O-])cc1` (centres unmarked) [SRI 21275, N-[[4-(Dimethylamino)phenyl]methyl]-5-fluoro-2-methyl-1-[[4-(methylsulfinyl)phenyl]methylene]-1H-indene-3-acetamide], in data set [1] (setting [6]), the IC50 is 6.3 µM.
As to `CCN(CC)CCNC(=O)CC1=C(C)C(=Cc2ccc([S+](C)[O-])cc2)c2ccc(F)cc21` (centres unmarked) [SRI 21276], the IC50 in data set [1] (setting [8]) came to 18.2 µM.
Regarding `CC1=C(CC(=O)N2CCN(C)CC2)c2cc(F)ccc2C1=Cc1ccc([S+](C)[O-])cc1` (centres unmarked) [SRI 21387, Ethanone, 2-[5-fluoro-2-methyl-1-[[4-(methylsulfinyl)phenyl]methylene]-1H-inden-3-yl]-1-(4-methylpiperazinyl)], the IC50 in data set [1] (setting [9]) came to 71 µM.
`CC1=C(CC(=O)NCCN(C)C)c2cc(F)ccc2/C1=C\c1ccc(S(C)(=O)=O)cc1` [SRI 21487]: the IC50 in data set [1] (setting [9]) was found to be 10 µM.
Still for that read-out and setting: then `CSc1ccc(/C=C2/C(C)=C(CC(=O)NCc3ccc(N(C)C)cc3)c3cc(F)ccc32)cc1` [SRI 21540, N-[[4-(Dimethylamino)phenyl]methyl]-(Z)-5-fluoro-2-methyl-3-[[4-(methylthio)phenyl]methylene]-1H-indene-3-acetamide], with 3.22 µM; and `CC1=C(CC(=O)Nc2ccc(N(C)C)cc2)c2cc(F)ccc2/C1=C\c1ccc([S+](C)[O-])cc1` (centres unmarked) [SRI 21590, N-[[4-(Dimethylamino)phenyl]-(Z)-5-fluoro-2-methyl-3-[[4-(methylsulfinyl)phenyl]methylene]]-1H-indene-3-acetamide], with 230 µM.
Still for that read-out and setting: then `CNCCN(C)C(=O)CC1=C(C)/C(=C/c2ccc(SC)cc2)c2ccc(F)cc21` [SRI 21596], with 1.62 µM.
For the compound `CSc1ccc(/C=C2/C(C)=C(CC(=O)Nc3ccc(N(C)C)cc3)c3cc(F)ccc32)cc1` [SRI 21623, N-[[4-(Dimethylamino)phenyl]-(Z)-5-fluoro-2-methyl-3-[[4-(methylthio)phenyl]methylene]]-1H-indene-3-acetamide], the “solubility during the bioassay” value in data set [1] is “solubility issues during the bioassay”. In addition, in data set [1] (setting [9]), the IC50 was over 100 µM.
Regarding `CSc1ccc(/C=C2/C(C)=C(CC(=O)O)c3cc(F)ccc32)cc1` [Sulindac sulfide, reference compound], the figures for the IC50 in data set [1] (setting [6]) and in data set [1] (setting [7]) were 45.2 µM and 71.2 µM, respectively.
As for `CC1=C(CC(=O)O)c2cc(F)ccc2/C1=C\c1ccc([S+](C)[O-])cc1` (centres unmarked) [Sulindac sulfoxide, Sulindac], the IC50 in data set [1] (setting [8]) was 450 µM; in data set [1] (read-out: cytotoxity IC50 values (50% inhibitory concentration), human colon tumor cells, in vitro), 479 µM. This compound came in with a maximum tolerated dose in data set [3] (mice, once a day dosing schedule) of about 50 mg/kg.
As for “N,2-Dimethyl-N-[2-(dimethylamino)ethyl]-5-fluoro-1-[[4-ethylsulfinyl)phenyl]methylene]-1H-indene-3-acetamide [SRI 21179]”, the IC50 in data set [1] (setting [8]) worked out at 19.8 µM.
